“Also recorded” adds a separate entry of the source. Read-outs that look alike come from different tables or passages of the source.
Legend:
human Sigma-1 receptor = target: T1, human Sigma-1 receptor (Homo sapiens, UniProt Q99720); assay: [3H]-(+)-pentazocine binding to MCF-7 cells stably expressing the cloned human Sigma-1 receptor; settings: for affinity for the Sigma-1 receptor in words: FIG. 6
T1 construct: expressed in transfected cells

HT-22 cells = assay: in vitro protection assay, glutamate-induced oxidative stress HT-22 cell model (Calcein AM cell survival)
[1] = test system: stroke (ICD-9 433, 434, 435)
[2] = test system: ferric chloride-induced lipid peroxidation in rat brain membranes; assay: ferric chloride-induced lipid peroxidation in rat brain membranes (antioxidant activity); type: biochemical; settings: even very high concentrations
Description: […]. Antioxidant activity was measured by the ability of compounds to prevent ferric chloride-induced lipid peroxidation in rat brain membranes. The antioxidant ZYC5 is a known antioxidant control. […]. In summary, in vitro protection against glutamate-induced oxidative stress in HT-22 cells is mediated by antagonism of Sigma-1 receptors.

[3] = test system: tMCAO induced brain injury; assay: transient middle cerebral artery occlusion (tMCAO) ischemic stroke model, infarct volume by triphenyltetrazolium staining; type: in vivo, rat; settings: 0.05 mg/kg acute, immediately after induction of 60 minute occlusion, ovariectomized female Sprague-Dawley rats, assessed 24 hrs after the stroke
NMDA receptors = settings: cited from earlier work
[4] = read-out: Potency (EC50 ± SEM nM), Table 4
[5] = Table 2, receptor target screen
[6] = Table 4, read-out: Affinity for the cloned Sigma-1 receptor (Ki ± SEM)
[7] = read-out: Potency (EC50 ± SEM), Table 2, receptor target screen
[8] = read-out: Potency (EC50 ± SEM), Table 5
[9] = Mus musculus, HT-22, read-out: Potency (EC50 ± SEM, nM)
[10] = protection against oxidative stress induced by 20 mM glutamate, Table 1
[11] = patients with CABG in 1997, N = 11,444

T1 sequence (Q99720 whole entry): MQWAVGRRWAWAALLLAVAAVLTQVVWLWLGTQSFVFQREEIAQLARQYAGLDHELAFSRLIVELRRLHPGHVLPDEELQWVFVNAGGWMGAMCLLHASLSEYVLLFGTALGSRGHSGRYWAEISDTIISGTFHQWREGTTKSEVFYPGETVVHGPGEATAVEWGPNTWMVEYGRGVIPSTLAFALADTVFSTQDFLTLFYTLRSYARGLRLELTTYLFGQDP

Compound | in vitro protection in words (HT-22 cells; FIGS. 2, 3 and 6) | Efficacy ± SEM (HT-22 cells; Table 4) | Efficacy ± SEM (HT-22 cells; [5]) | EC50 (HT-22 cells; [9]) | Efficacy ± SEM (HT-22 cells; [10]) | further results
OC(CCCN1CCC(O)(c2ccc(Cl)cc2)CC1)c1ccc(F)cc1 (centres unmarked) | high potency protection | 58 ± 5.6 | – | – | – | affinity for the Sigma-1 receptor in words (human Sigma-1 receptor): high affinity; EC50 (HT-22 cells; [4]): 12.9 ± 12.2 nM
Clc1ccc2c(c1)C(N1CCNCC1)=Nc1ccccc1O2 [Amoxapine] | – | – | 0 | – | – | –
CN1CCN(CCc2ccc(Cl)c(Cl)c2)CC1 [BD1063] | – | 61 ± 7.5 | 61 ± 7.5 | – | – | Ki (human Sigma-1 receptor; [6]): 3.1 ± 1.4 nM; Ki (human Sigma-1 receptor; Table 5, own value, read-out: Affinity for the Sigma-1 receptor (Ki)): 3.1 nM; Efficacy ± SEM (HT-22 cells; Table 5): 61 ± 7.5; EC50 (HT-22 cells; [4]): 5.9 ± 3.5 nM; EC50 (HT-22 cells; [7]): 5.9 ± 3.5 nM; EC50 (HT-22 cells; [8]): 5.9 ± 3.5 nM
O=C(CCCN1CCC(n2c(=O)[nH]c3ccccc32)CC1)c1ccc(F)cc1 [Benperidol, 1-[1-[4-(4-fluorophenyl)-4-oxo-butyl]-4-piperidyl]-3H-benzoimidazol-2-one] | do not provide potent protection | 66 ± 23 | – | 1160 ± 498 nM | – | Ki (human Sigma-1 receptor): 252 ± 42 nM; affinity for the Sigma-1 receptor in words (human Sigma-1 receptor): nor do they have high affinity
O=C(CCCN1CCC(O)(c2ccc(Br)cc2)CC1)c1ccc(F)cc1 [Bromperidol, 4-[4-(4-bromophenyl)-4-hydroxy-1-piperidyl]-1-(4-fluorophenyl)-butan-1-one] | high potency protection | 67 ± 9.8 | – | 0.95 ± 0.82 nM | – | affinity for the Sigma-1 receptor in words (human Sigma-1 receptor): high affinity; Ki (human Sigma-1 receptor; [6]): 1.2 ± 0.21 nM
O=C(CCCN1CCC(O)(c2ccc(Cl)cc2)CC1)c1ccc(Cl)cc1 [Chlorohaloperidol, 1-(4-chlorophenyl)-4-[4-(4-chlorophenyl)-4-hydroxy-1-piperidyl]-butan-1-one] | high potency protection | 64 ± 3.4 | – | 4.3 ± 1.7 nM | – | Ki (human Sigma-1 receptor): 1.5 ± 0.36 nM; affinity for the Sigma-1 receptor in words (human Sigma-1 receptor): high affinity
CN(C)CCCN1c2ccccc2Sc2ccc(Cl)cc21 [Chlorpromazine] | – | – | – | > 1000 nM | 0 | –
CN(C)CC/C=C1/c2ccccc2Sc2ccc(Cl)cc21 [Chlorprothixene] | – | – | – | > 1000 nM | 0 | –
CN1CCN(C2=Nc3cc(Cl)ccc3Nc3ccccc32)CC1 [Clozapine] | – | – | – | – | 0 | –
CC(=O)CC(c1ccccc1)c1c(O)c2ccccc2oc1=O (centres unmarked) [Coumadin] | – | – | – | – | – | B (logistic regression coefficient for stroke) ([1]; full model N = 145,576): 1.018; Odds Ratio for stroke ([1]; full model N = 145,576): 2.769; times more likely to have a stroke during the year ([1]; general model): about 2.7 times; B (logistic regression coefficient for stroke) [1, 11]: 0.849; Odds Ratio for stroke [1, 11]: 2.337
O=C(CCCN1CC=C(n2c(=O)[nH]c3ccccc32)CC1)c1ccc(F)cc1 [Droperidol, 1-[1-[4-(4-fluorophenyl)-4-oxo-butyl]-3,6-dihydro-2H-pyridin-4-yl]-3H-benzoimidazol-2-one] | do not provide potent protection | 100 | – | 5270 ± 2230 nM | – | –
OCCN1CCN(CCCN2c3ccccc3Sc3ccc(C(F)(F)F)cc32)CC1 [Flupenazine] | – | – | – | – | 0 | EC50 (HT-22 cells; read-out: Potency (EC50 ± SEM), protection against oxidative stress induced by 20 mM glutamate, Table 1): > 1000 nM
O=C(CCCN1CCC(O)(c2ccc(Cl)cc2)CC1)c1ccc(F)cc1 [Haloperidol, 4-[4-(4-chlorophenyl)-4-hydroxy-1-piperidyl]-1-(4-fluorophenyl)-butan-1-one] | strong neuroprotection; also recorded: high potency protection | 65 ± 2.5 | – | – | 65 ± 2.5 | antioxidant activity (prevention of lipid peroxidation) [2]: failed to prevent ferric chloride-induced peroxidation of brain lipids; reduction in infarct volume [3]: 50%; B (logistic regression coefficient for stroke) ([1]; full model N = 145,576): −0.464; B (logistic regression coefficient for stroke) [1, 11]: −0.926; decrease of risk of stroke ([1]; patients with CABG surgery in 1997, significant only at the 0.07 level): about 60%; affinity of NMDA receptors for haloperidol (NMDA receptors): > 1 µM
O=C(c1ccc(F)cc1)C1CCN(CCn2c(=O)[nH]c3ccccc3c2=O)CC1 [Ketanserin] | – | – | 0 | > 1000 nM | – | –
OC1(c2ccc(Cl)cc2)CCN(Cc2c[nH]c3ccccc23)CC1 [L741626] | – | – | 0 | – | – | EC50 (HT-22 cells; [7]): > 1000 nM
Cc1c(C2CCN(CCc3ccccc3)CC2)noc1-c1ccc(Cl)cc1 [L741742, 5-(4-Chlorophenyl)-4-methyl-3-(l-(2-phenylethyl)piperidin-4-yl)isoxazole] | – | 61 ± 2.7 | 61 ± 2.7 | – | – | Ki (human Sigma-1 receptor; [6]): 4.8 ± 0.41 nM; EC50 (HT-22 cells; read-out: In vitro Protective Potency (EC50 ± SEM), Table 3): 1.2 ± 0.82 nM; EC50 (HT-22 cells; [4]): 1.2 ± 0.82 nM; EC50 (HT-22 cells; [7]): 1.2 ± 0.82 nM
Clc1ccc(N2CCN(Cc3c[nH]c4ncccc34)CC2)cc1 [L745870, 3-((4-(4-Chlorophenyl)piperazin-1-yl)-methyl)-1H-pyrrolo-2,3-b-pyridine] | – | – | – | – | – | Efficacy ± SEM (HT-22 cells): 50 ± 9.6; EC50 (HT-22 cells; read-out: In vitro Protective Potency (EC50 ± SEM)): 895 ± 736 nM; EC50 (HT-22 cells; read-out: Potency (EC50 ± SEM nM)): 895 ± 736 nM; EC50 (HT-22 cells; read-out: Potency (EC50 ± SEM)): 895 ± 736 nM
CN1CCN(C2=Nc3ccccc3Oc3ccc(Cl)cc32)CC1 [Loxapine] | – | – | – | > 1000 nM | 0 | –
CN1CCN2c3ncccc3Cc3ccccc3C2C1 (centres unmarked) [Mirtazapine] | – | – | 0 | > 1000 nM | – | –
Cc1cccc(C(=O)NCN2CCN(c3ccccc3C#N)CC2)c1 [PD168077] | – | – | 0 | – | – | EC50 (HT-22 cells; [7]): > 1000 nM
O=C(OCCN1CCOCC1)C1(c2ccccc2)CCCCC1 [PRE-084] | – | – | 0 | – | – | EC50 (HT-22 cells; [7]): > 1000 nM; EC50 (HT-22 cells; [8]): > 1000 nM
OC1(c2ccc(Cl)c(C(F)(F)F)c2)CCN(CCCC(c2ccc(F)cc2)c2ccc(F)cc2)CC1 [Penfluridol, 1-[4,4-bis(4-fluorophenyl)butyl]-4-[4-chloro-3-(trifluoromethyl)phenyl]-piperidin-4-ol] | moderate protective potency | 80 ± 20 | – | – | – | affinity for the Sigma-1 receptor in words (human Sigma-1 receptor): moderate affinity; Ki (human Sigma-1 receptor; [6]): 53 ± 15 nM; EC50 (HT-22 cells; [4]): 350 ± 246 nM
OCCN1CCN(CCCN2c3ccccc3Sc3ccc(Cl)cc32)CC1 [Perphenazine] | – | – | – | > 1000 nM | 0 | –
O=c1[nH]c2ccccc2n1C1CCN(CCCC(c2ccc(F)cc2)c2ccc(F)cc2)CC1 [Pimozide] | – | – | 0 | > 1000 nM | – | EC50 (HT-22 cells; Mus musculus, HT-22, read-out: In vitro Protective Potency (EC50 ± SEM, nM)): > 1000 nM
Cc1nc2n(c(=O)c1CCN1CCC(c3noc4cc(F)ccc34)CC1)CCCC2 [Risperidone] | – | – | – | – | 0 | –
CCN1CCC[C@H]1CNC(=O)c1c(O)c(Cl)cc(Cl)c1OC [S-(−)-Raclopride] | no neuroprotection | – | 0 | > 1000 nM | 0 | EC50 (HT-22 cells; [7]): > 1000 nM
CCC(Oc1ccc(Cl)cc1)C(=O)OC1CC2CCC(C1)N2C (centres unmarked) [SM-21] | no protective effect | – | 0 | – | – | EC50 (HT-22 cells; [7]): > 1000 nM; EC50 (HT-22 cells; [8]): > 1000 nM
O=C(CCCN1CCC2(CC1)C(=O)NCN2c1ccccc1)c1ccc(F)cc1 [Spiperone, 8-[4-(4-fluorophenyl)-4-oxo-butyl]-1-phenyl-1,3,8-triazaspiro[4.5]decan-4-one] | do not provide potent protection | 100 | – | – | – | affinity for the Sigma-1 receptor in words (human Sigma-1 receptor): nor do they have high affinity; Ki (human Sigma-1 receptor; [6]): 1050 ± 334 nM
CSc1ccc2c(c1)N(CCC1CCCCN1C)c1ccccc1S2 (centres unmarked) [Thioridazine] | – | – | – | – | 0 | –
O=C(CCCN1CCC(O)(c2cccc(C(F)(F)F)c2)CC1)c1ccc(F)cc1 [Trifluperidol, 1-(4-fluorophenyl)-4-[4-hydroxy-4-[3-(trifluoromethyl)phenyl]-1-piperidyl]-butan-1-one] | – | – | – | 7.5 ± 6.3 nM | – | affinity for the Sigma-1 receptor in words (human Sigma-1 receptor): high affinity; Efficacy ± SEM (HT-22 cells): 55 ± 3.0; in vitro protection in words (HT-22 cells): high potency protection

Source: patent publication US20060106064A1, “Butyrophenones and sigma-1 receptor antagonists protect against oxidative-stress” (University of North Texas Health Science Center at Fort …, priority 2004, published 2006)
